One assay deals with T1, ovine COX-1 (Ovis aries, UniProt P05979).
T1 construct: purchased Cayman Chemical, USA 560131
T1 sequence (P05979 25-600): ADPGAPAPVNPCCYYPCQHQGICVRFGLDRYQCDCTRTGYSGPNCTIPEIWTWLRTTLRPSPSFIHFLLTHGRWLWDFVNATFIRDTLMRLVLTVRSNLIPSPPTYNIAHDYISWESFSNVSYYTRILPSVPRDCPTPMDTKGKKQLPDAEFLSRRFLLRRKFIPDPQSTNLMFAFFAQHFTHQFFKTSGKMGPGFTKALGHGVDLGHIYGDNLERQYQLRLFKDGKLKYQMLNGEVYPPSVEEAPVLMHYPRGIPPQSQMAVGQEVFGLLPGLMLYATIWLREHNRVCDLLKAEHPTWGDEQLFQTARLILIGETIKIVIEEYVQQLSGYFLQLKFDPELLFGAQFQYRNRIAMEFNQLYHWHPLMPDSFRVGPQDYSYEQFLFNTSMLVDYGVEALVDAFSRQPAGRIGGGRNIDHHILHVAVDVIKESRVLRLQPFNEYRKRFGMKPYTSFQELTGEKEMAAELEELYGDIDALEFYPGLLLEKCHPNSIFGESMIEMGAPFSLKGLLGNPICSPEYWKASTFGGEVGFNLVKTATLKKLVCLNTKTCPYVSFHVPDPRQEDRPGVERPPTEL
The assay is described as follows: COX (ovine) Inhibitor Screening Assay, COX-1 (EIA of PGF2α). The class given is biochemical. As to conditions: Cayman COX inhibitor screening assay kit. An excerpt:
(§1) 2-Butanone, ethylcyanoacetate (≥98%), dimethylformamide (≥99.5%), ethanol (≥99%), n-hexane, cyanamide and sulphur (≥99.5%) were bought from Acros Chemical (USA). Diethylamine, sodium sulphate anhydrous and analytical grade NaOH pellets were bought from Fisher Scientific (UK). 1,4-dioxane, concentrated HCl, ethyl acetate, hexane, chloroform, 4-fluorobenzoyl chloride (98%) , 4-methoxyphenyl acetonitrile (≥97%), 4-fluorophenyl acetonitrile (≥99%), and 2-(trifluoromethyl)benzoyl chloride were bought from Aldrich Chemicals. TLC Silica gel 60 F254 was obtained from Merck, USA. COX inhibitor screening assay kit (Item no. 560131) was procured from Cayman Chemical, USA.
(§2) The COX (ovine) Inhibitor Screening Assay was performed mainly to determine the selective inhibition of tested compounds (4a, 4b, 5a, 5b) towards the ovine COX-1 and human recombinant COX-2 isoenzymes. The addition of arachidonic acid (AA) helped to convert the COX component into PGG2, followed by reduction of PGG2 into PGH2. The following addition of SnCl2 converted PGH2 into PGF2α. The assay directly measures the PGF2α0 via enzyme immunoassay (EIA) using a broadly specific antiserum that bound to all PG tracers. Depending on the tested compounds inhibitory effect, the concentration of PGF2α in each well varied and was inversely proportional to the amount of PG tracers that was able to bind to the antiserum. PG tracers-antiserum complex was left to bind to the mouse monoclonal anti-rabbit antibody that has been coated to the well during the 18 hours incubation. Ellman's reagent was added to give distinct yellow coloration to the products from this enzymatic reaction, which absorbed strongly at 412 nm. The intensity of the color was proportional to the amount of PG tracers-antiserum complex bound to the well, which was inversely proportional to the concentration of PGF2α present.
(§3) The inhibitory activity of tested compounds was determined based on IC50 values whereas the selectivity was based on their selectivity indices (SI), which defined as COX-1 IC50/COX-2 IC50. In the assay system, indomethacin was used as non-selective COX inhibitor standard while NS-398 was used as COX-2 selective inhibitor standard.

Another assay has as its target T2, human recombinant COX-2 (Homo sapiens, UniProt P35354).
T2 construct: purchased Cayman Chemical, USA 560131
T2 sequence (P35354 18-604): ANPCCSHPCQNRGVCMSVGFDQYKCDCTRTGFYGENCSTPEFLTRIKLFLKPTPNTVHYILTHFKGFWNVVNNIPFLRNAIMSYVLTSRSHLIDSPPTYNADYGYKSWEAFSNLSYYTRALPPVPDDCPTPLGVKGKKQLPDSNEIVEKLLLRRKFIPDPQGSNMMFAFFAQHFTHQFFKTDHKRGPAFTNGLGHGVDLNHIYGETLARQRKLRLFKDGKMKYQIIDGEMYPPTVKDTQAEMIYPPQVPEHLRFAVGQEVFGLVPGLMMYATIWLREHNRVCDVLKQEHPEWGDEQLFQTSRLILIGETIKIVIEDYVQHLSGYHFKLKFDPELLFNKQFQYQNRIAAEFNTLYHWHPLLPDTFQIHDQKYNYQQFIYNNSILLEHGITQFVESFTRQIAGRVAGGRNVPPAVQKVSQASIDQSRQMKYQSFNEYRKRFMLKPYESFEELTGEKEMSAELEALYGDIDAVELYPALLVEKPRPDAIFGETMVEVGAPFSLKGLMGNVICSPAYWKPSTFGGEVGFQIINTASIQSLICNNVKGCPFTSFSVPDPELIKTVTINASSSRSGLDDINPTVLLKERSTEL
The assay is described as follows: COX Inhibitor Screening Assay, COX-2 (EIA of PGF2α). The class given is biochemical. The note with it: for IC50: human recombinant COX-2, Cayman COX inhibitor screening assay kit; for SI (selectivity index, COX-1 IC50/COX-2 IC50): ratio COX-1 IC50/COX-2 IC50; for selective inhibition against COX-2: statement in words, COX-2 versus COX-1.
Description: as §1, §2, §3

`Cc1sc2nc(Cc3ccc(F)cc3)[nH]c(=O)c2c1C` [Compound 4a, 2-(4-Fluorobenzyl)-5,6-dimethylthieno[2,3-d]pyrimidin-4(3H)-one] yielded an IC50 against ovine COX-1 of 203 µM. At human recombinant COX-2, the concentration for half-maximal inhibition (IC50) amounted to 42.2 µM; the “SI (selectivity index, COX-1 IC50/COX-2 IC50)” value stood at 4.81; the “selective inhibition against COX-2” value is recorded as “mild selective inhibition”.
For `COc1ccc(Cc2nc3sc(C)c(C)c3c(=O)[nH]2)cc1` [Compound 4b, 2-(4-Methoxybenzyl)-5,6-dimethylthieno[2,3-d]pyrimidin-4(3H)-one], in that order: 586 µM, 143 µM, 4.11 and “mild selective inhibition”.
Compound `Cc1sc2nc(NC(=O)c3ccc(F)cc3)[nH]c(=O)c2c1C` [Compound 5a, N-(5,6-Dimethyl-4-oxo-3,4-dihydrothieno[2,3-d]pyrimidin-2-yl)-4-fluorobenzamide] came in with an IC50 against ovine COX-1 of 112 µM. Moreover, at human recombinant COX-2, the half-maximal inhibitory concentration (IC50) was determined as 103 µM; the “SI (selectivity index, COX-1 IC50/COX-2 IC50)” value is listed as 1.08; the “selective inhibition against COX-2” value is listed as “mild selective inhibition”.
On ovine COX-1, `Cc1sc2nc(NC(=O)c3ccccc3C(F)(F)F)[nH]c(=O)c2c1C` [Compound 5b, N-(5,6-dimethyl-4-oxo-3,4-dihydrothieno[2,3-d]pyrimidin-2-yl)-2-(trifluoromethyl)benzamide] returned an IC50 of 21.8 µM. Also, at human recombinant COX-2, the concentration for half-maximal inhibition (IC50) came out at 189 µM; the “SI (selectivity index, COX-1 IC50/COX-2 IC50)” value amounted to 0.12; the “selective inhibition against COX-2” value was “mild selective inhibition”.

In general, IC50 refers to the concentration that inhibits the measured activity by half.

The values are drawn from US11932656B1, “Thieno[2,3-d]pyrimidines as COX-2 inhibitors” (KING FAISAL UNIVERSITY, priority 2023, dated 2024).
